The values below come from patent US8802630B2, “Method of treating brain injury” (Buddhist Tzu Chi General Hospital, priority 2011, dated 2014).

The test system of experiment [1] is collagenase-induced ICH rats. Nature of the experiment: Assessment of brain edema (brain water content, wet/dry method). The experiment is classed as in vivo. The following applies: day 3 post-ICH. An excerpt:
Brain edema formation peaks on day 3 post-ICH (Xue et al., 2000; Yang et al., 1994). […] Rats were randomly used in the assessment of brain water content by using a common wet/dry method as previously described (Chu et al., 2004). Briefly, 3 days post-ICH, rats were anesthetized and decapitated. The brains were removed and separated into contralateral, ipsilateral hemispheres and cerebellum. The cerebellum was used as an internal control. Sample was weighed to obtain the wet weight immediately, and then dried in an oven at 100° C. for 24 hours to obtain the dry weight. The water content was expressed as a percentage of the wet weight: [(wet weight)−(dry weight)](wet weight)^−1×100%.

Experiment [2] deals with collagenase-induced ICH rats. In words: Assessment of hemorrhagic volume (spectrophotometric assay). The format is in vivo. Here is the method:
Rats were randomly used in assessment of hemorrhagic volume at 24 hours (day 1) post-ICH. The accumulated hemorrhagic volume was quantified by a spectrophotometric assay as reported by Park et al., with minor modification (Park et al., 2005). Briefly, both contralateral and ipsilateral hemispheres were obtained after transcardial perfusion. PBS was added to the individual hemispheres to make-up a total of 3 ml volume for homogenization and centrifugation (15000 g, 30 minutes). The supernatant (40 μl) was reacted with Drabkin's reagent (160 μl, Sigma) for 15 minutes at room temperature. Optical density was measured at 540 nm with a spectrophotometer (Molecular Devices OptiMax, USA). Equivalent hemorrhage volume (μl) of the supernatant was calculated from a standard curve obtained with known amounts of the blood.

The subject of experiment [3] is collagenase-induced ICH rats. Nature of the experiment: Morphometric measurement of lesion volume / injured area. The format is in vivo. Particulars: for injured area: UCN 5 μg i.c.v. The text has this:
[…] The brains were cut coronally through the needle entry site (identifiable on the brain surface), and then serially sliced (2-mm thickness) anteriorly and posteriorly to the needle entry site. Digital photographs of the serial slices were taken and lesion volume was computed using image analyzer program (Image J, NIH). The total lesion volume (mm^3) was computed by summing the residual blood clot and damaged area in each section and multiplying by the distance between sections (Jung et al., 2004).

Experiment [4] concerns collagenase-induced ICH rats. Nature of the experiment: Assessment of blood-brain barrier disruption (Evans blue extravasation). The format is in vivo. Here is the method: Rats were randomly used in assessment of the vascular permeability of BBB with a modified Evans blue extravasation method (Esen et al., 2005). Briefly, 70 hours post-ICH, rats were anesthetized with chloral hydrate (0.4 g/kg) and infused, via the right femoral vein with 37° C. Evans blue dyes (2% in 0.9% normal saline, 4 ml/kg) over 5 minutes. Two hours later, the rats were perfused with 300 ml normal saline to wash out any remaining dye in the blood vessels and then brains were removed and sectioned into 2 mm thickness by a rodent brain matrix. Coronal brain sections were taken starting at +2 mm and ending at −4 mm from Bregma. BBB permeability was evaluated in the striatum, cortex and cerebellum. The cerebellum was used as an internal control. Each portion was weighed immediately and placed in 1 ml of 0.9% normal saline for homogenization of the sample. For protein precipitation, 1 ml of 60% trichloroacetic acid solution was added and vortexed for 2 minutes. The mixture was subsequently cooled for 30 minutes and centrifuged (1500 g at 4° C.) for another 30 minutes. The absorbance of Evans blue in the supernatant was then measured with a spectrophotometer (Molecular Devices OptiMax, USA) at 610 nm The dye concentration was expressed as μg/g of tissue weight and calculated from a standard curve obtained from known amounts of the dye.

The subject of the next experiment is NeuN+ cells (neurons). In words: Immunohistochemistry of neuronal loss (NeuN). The format is in vivo, rats. The following applies: perihematomal region; L-UCN 2.5 μg/kg i.p.; day 3 post-ICH. Here is the method: Rats were used in immunohistochemistry on day 3 post-ICH. Rats were anesthetized as described above and transcardially perfused with cold 0.1 M phosphate buffer saline followed by cold 4% paraformaldehyde in 0.1 M phosphate-buffered saline. Brains were removed and immersed in 4% paraformaldehyde for 24 hours and 30% sucrose for another 24 hours. Coronal brain sections (20 μm thickness) were cut and collected from 0.0 to −2.0 mm AP to bregma using a cryostat (Leica CM 1900). Three 20 μm coronal sections, representing the core of the hematoma, were taken starting at 0.0 mm from bregma (the needle entry site). Additional adjacent serial coronal sections taken through the center of the hemorrhagic lesion were processed for the counting of marker-specific cells (Jung et al., 2004). Antibodies of OX-42 (1:100; BD, USA), ED-1 (1:100; BD, USA) were used as microglial markers, and NeuN (1:200, Chemicon, USA) was used as neuron marker. Tissues sections were incubated with the primary antibodies overnight at 4° C. […] The numbers of positive cells in the same focal plane were counted in 6 regions of interest around the ipsilateral striatum (perihematomal region, 1 mm^2) All cell counting was done by an independent investigator counted the positive cells.

Where no end group is shown, it is not given here.

As to “urocortin (DNPSLSIDLTFHLLRTLLELARTQSQRERAEQNRIIFDSV; ends and bridges not checked; UniProt P55089 83-122, looked up) [UCN, a 40-amino-acid endogenous neuropeptide, belongs to the corticotrophin releasing hormone (CRH) family]”, the brain water content result in experiment [1] (cerebellum, L-UCN and H-UCN i.p., among groups) is “No significant differences”; in experiment [1] (cerebellum, UCN 5 μg i.c.v., among groups) it was “essentially not affected”; in experiment [1] (contralateral hemisphere, H-UCN 25 μg/kg i.p.), 79.40±0.15%; in experiment [1] (contralateral hemisphere, L-UCN 2.5 μg/kg i.p.) it was 79.98±0.19%; in experiment [1] (contralateral hemisphere, UCN 5 μg i.c.v.) it was 80.08±0.08%; in experiment [1] (ipsilateral hemisphere, H-UCN 25 μg/kg i.p.) it was 79.94±0.66%. Besides, the brain water content in experiment [1] (ipsilateral hemisphere, L-UCN 2.5 μg/kg i.p.) is listed as 80.60±0.17%; in experiment [1] (ipsilateral hemisphere, UCN 5 μg i.c.v.) it was 81.16±0.16%. Moreover, the hemorrhagic volume result in experiment [2] (L-UCN 2.5 μg/kg i.p., day 1 post-ICH, vs ICH+Saline) is given as “not significantly different”. Moreover, the accumulated hemorrhagic volume result in experiment [2] (UCN 5 μg i.c.v., 24 h post-ICH, vs ICH+saline) is reported as “not significantly different”. Besides, in experiment [3] (L-UCN 2.5 μg/kg i.p., day 3 post-ICH), the lesion volume stood at 23.73±1.79 mm^3. In addition, the injured area in experiment [3] (day 3 after ICH) came to 16.14±1.22 mm^2; in experiment [3] (day 7 after ICH) it was 5.62±1.04 mm^2. The “Evans blue dye concentration” value is “not changed” in experiment [4] (cerebellum, contralateral cerebral cortex and striatum, L-UCN 2.5 μg/kg i.p., day 3); “not different” in experiment [4] (contralateral striatum, contralateral and ipsilateral cortices, cerebellum, UCN 5 μg i.c.v., day 3, vs ICH+Saline); 0.38 ± 0.05 µg/g in experiment [4] (ipsilateral cortex, L-UCN 2.5 μg/kg i.p., day 3 post-ICH); 1.73 ± 0.36 µg/g in experiment [4] (ipsilateral striatum, L-UCN 2.5 μg/kg i.p., day 3 post-ICH). The substance further returned an Evans blue concentration in experiment [4] (ipsilateral striatum, UCN 5 μg i.c.v., day 3 after ICH) of 1.24 ± 0.31 µg/g. Besides, the “NeuN+ cells” value in the experiment on NeuN+ cells (neurons) came out at 397.00±39.74 cells/6 mm^2.
